According to publication PMC6409085, “Three odorant-binding proteins are involved in the behavioral response of Sogatella furcifera to rice plant volatiles” (PeerJ, 2019):

Legend:
Assay in all cases: biochemical
Format in all cases: binding
SfurOBP1 = SfurOBP1 (Sogatella furcifera, UniProt V5T8N5); conditions: SfurOBP1; protein and 1-NPN both 2.0 µM; competitor 2-20 µM; read-out: IC50
Method in brief: (§1)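 Fluorescence competitive binding used 2.0 µM SfurOBP and 2.0 µM 1-NPN reporter in 50 mM Tris-HCl, pH 7.4, with odorants at 2-20 µM. Fluorescence was read 2 min after adding the odorant (excitation 337 nm, emission 390-490 nm), in triplicate. Ki was calculated from IC50 as IC50/(1 + [1-NPN]/K1-NPN).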

SfurOBP2 = SfurOBP2 (Sogatella furcifera, UniProt V5T759); conditions: SfurOBP2; protein and 1-NPN both 2.0 µM; competitor 2-20 µM; read-out: IC50
Chain of SfurOBP2 (V5T759 entry or part of it): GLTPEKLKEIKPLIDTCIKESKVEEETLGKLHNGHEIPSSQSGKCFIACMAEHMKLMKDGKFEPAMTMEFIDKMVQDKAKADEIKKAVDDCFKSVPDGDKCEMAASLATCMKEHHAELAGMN
Method in brief: as §1

SfurOBP3 = SfurOBP3 (Sogatella furcifera, UniProt V5T818); conditions: SfurOBP3; protein and 1-NPN both 2.0 µM; competitor 2-20 µM; read-out: IC50
Chain of SfurOBP3 (V5T818 entry or part of it): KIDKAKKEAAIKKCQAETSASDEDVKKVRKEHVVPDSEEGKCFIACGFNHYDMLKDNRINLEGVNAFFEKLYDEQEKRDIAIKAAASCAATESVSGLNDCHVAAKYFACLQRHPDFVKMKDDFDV
Method in brief: as §1

SfurOBP11 = SfurOBP11 (Sogatella furcifera, UniProt V5T6E3); conditions: SfurOBP11; protein and 1-NPN both 2.0 µM; competitor 2-20 µM; read-out: IC50
Chain of SfurOBP11 (V5T6E3 entry or part of it): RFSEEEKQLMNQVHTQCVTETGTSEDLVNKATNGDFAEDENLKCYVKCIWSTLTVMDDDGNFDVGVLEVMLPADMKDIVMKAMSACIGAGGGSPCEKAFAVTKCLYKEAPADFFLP
Method in brief: as §1

Measured: IC50

Chain of SfurOBP1 (V5T8N5 entry or part of it): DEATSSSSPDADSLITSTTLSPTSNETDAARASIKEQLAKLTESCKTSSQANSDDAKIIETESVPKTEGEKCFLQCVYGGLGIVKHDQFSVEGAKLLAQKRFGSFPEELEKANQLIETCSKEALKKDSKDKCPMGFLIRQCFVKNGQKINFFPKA

CCCCCCCCCCCCCCCC(=O)OC [methyl hexadecanoate]
> 20 µM: all assays above

CC(C)COC(=O)CCCCC(=O)OCC(C)C [diisobutyl adipate]
> 20 µM: all assays above
